In patent US8962529B2, “Substituted picolinic acids, salts and acid derivatives thereof, and use thereof as herbicides” (Bayer Cropscience AG, priority 2010, dated 2015):

How the values were obtained:
Assay type in all cases: in vivo
ABUTH = experiment: Post-emergence herbicidal action against weed plants (greenhouse pot test); conditions: one-leaf stage, application rate 320 g/ha, scored visually after about 3 weeks vs untreated controls, 100% = plants have died
Protocol: (§1) Seeds of mono- and dicotyledonous weed and crop plants are set out in wood fiber pots in sandy loam soil, covered with soil and cultivated in a greenhouse under good growth conditions. 2 to 3 weeks after sowing, the trial plants are treated at the one-leaf stage. The inventive compounds formulated in the form of wettable powders (WP) or as emulsion concentrates (EC) are then sprayed onto the green plant parts as an aqueous suspension or emulsion with a water application rate of 600 to 800 l/ha (converted) with addition of 0.2% wetting agent. After the trial plants have stood in the greenhouse under optimal growth conditions for about 3 weeks, the action of the preparations is scored visually in comparison to untreated controls (herbicidal action in percent (%): 100% action=plants have died, 0% action=like control plants).

Veronica persica [1] = experiment: as above; conditions: one-leaf stage, application rate 320 g/ha, scored visually after about 3 weeks vs untreated controls, 100% = plants have died
Protocol: as §1

Veronica persica [2] = experiment: Pre-emergence herbicidal action against weed plants (greenhouse pot test); conditions: application rate 320 g/ha, scored visually after 3 weeks vs untreated controls, 100% = plants have died, 0% = like control plants
Text: (§2) Seeds of mono- and dicotyledonous weed and crop plants are set out in wood fiber pots in sandy loam soil and covered with soil. The inventive compounds formulated in the form of wettable powders (WP) or as emulsion concentrates (EC) are then applied to the surface of the covering earth as an aqueous suspension or emulsion at a water application rate of 600 to 800 l/ha (converted) with addition of 0.2% wetting agent. After the treatment, the pots are placed in a greenhouse and kept under good growth conditions for the test plants. The damage to the test plants is scored visually after an experiment time of 3 weeks in comparison to untreated controls (herbicidal action in percent (%): 100% action=plants have died, 0% action=like control plants).

Ipomoea purpurea = experiment: Post-emergence herbicidal action against weed plants (greenhouse pot test); conditions: one-leaf stage, application rate 320 g/ha, scored visually after about 3 weeks vs untreated controls, 100% = plants have died
Protocol: as §1

Amaranthus retroflexus = experiment: Pre-emergence herbicidal action against weed plants (greenhouse pot test); conditions: application rate 320 g/ha, scored visually after 3 weeks vs untreated controls, 100% = plants have died, 0% = like control plants
Text: as §2

## COC(=O)c1nc(-c2ccc(Cl)c(C3CO3)c2F)cc(N)c1Cl (centres unmarked) [Example 9-618]
ABUTH
  herbicidal action in percent, ABUTH: 80%
Veronica persica [1]
  herbicidal action in percent, VERPE: 90%
Veronica persica [2]
  herbicidal action in percent, VERPE: 100%

## COC(=O)c1nc(-c2ccc(Cl)c(C3COC(C)(C)O3)c2F)cc(N)c1Cl (centres unmarked) [Example 9-842]
ABUTH
  herbicidal action in percent, ABUTH: 80%
Ipomoea purpurea
  herbicidal action in percent, PHBPU: 90%
Veronica persica [1]
  herbicidal action in percent, VERPE: 100%
Amaranthus retroflexus
  herbicidal action in percent, AMARE: 90%
Veronica persica [2]
  herbicidal action in percent, VERPE: 100%
